test system: SA121 hESCs; assay: General (monolayer) differentiation on matrigel in defined media, qRT-PCR of stem cell and differentiation markers after 14 days; assay type: cell-based, human; set-up: key to NO EHNA EFFECT: X: NO EHNA EFFECT; key to Full EHNA effect: those which maintained at least 50% of the level of NANOG-expression in comparison to EHNA and those that inhibited the expression of PAX6 to 50% or less than the value untreated controls were considered to have an EHNA-like effect; settings: 10 uM, 14 days, qRT-PCR; NANOG at least 50% of EHNA level and PAX6 50% or less of untreated control
Method: In order to ascertain the efficacy of the compounds of the present invention, each compound was tested to determine whether it can maintain the stem cell marker NANOG and/or block the differentiation marker PAX6 in the face of differentiating conditions in a manner similar to EHNA. Cells enzymatically passaged onto matrigel-coated dishes and grown for 2 weeks in defined media with or without (control) compound addition were analysed by qRT-PCR to determine the level of NANOG and PAX6 expression.
For general differentiation experiments cells were passaged with trypsin onto matrigel coated twelve-well dishes in the fully supportive media (see above). The media was then changed to defined media 24 h later and any experimental component was first added at this point. The media and experimental supplement were changed daily.
Cells were routinely harvested for qRT-PCR analysis 14 days after the first addition of the experimental compound.
Total RNA was extracted using QIAGEN RNeasy kits (Qiagen Inc, Valencia, Calif., http://www.qiagen.com) and DNaseI treatment was performed using Turbo DNA-Free (Ambion). The absence of genomic DNA was confirmed by quantitative PCR (qPCR) (see below) using glyceraldehyde-3-phosphate dehydrogenase (GAPDH) Taqman primers and probe (MWG). cDNA was synthesized with 2 μg total RNA in 20 μl using Superscript II according to manufacturers' instructions ((Carlsbad, Calif., http://www.Invitrogen.com)). For qPCR, cDNAs were diluted 1 in 60 and 5 μl used per sample in a 15 μl total reaction volume. Platinum pPCR supermix UDG with Rox (Carlsbad, Calif., http://www.Invitrogen.com) was used according to the manufacturer's instructions using an Applied Biosystems 7300 real time PCR system (Applied Biosystems, Warrington, UK, http://europe.appliedbiosystems.com). Each reaction contained 0.6 μM of each primer and Taqman probe (MWG). Biological and technical replicates were each performed in triplicate for each sample, standardised to the GAPDH housekeeping gene and relative expression values were calculated using the 7300 system SDS software (Applied Biosystems, Warrington, UK, http://europe.appliedbiosystems.com).
Cells were enzymatically passaged onto matrigel-coated dishes and grown for 2 weeks in defined media. After 14 days, qRT-PCR was utilised to analyse the expression of a variety of markers of pluripotency and differentiation. In the graphs in FIG. 9 the value 1 was set to the expression level of the gene in undifferentiated SA121 hESCs.
Cells were enzymatically passaged onto matrigel-coated dishes and grown for 2 weeks in defined media (1× confluent T25 tissue culture flask was passaged to 2×12 well dishes) with or without (control) compound addition. All compounds were added at 10 uM and each was performed in triplicate. Media and compounds were changed every 48 hours. After 14 days RNA was isolated and qRT-PCR was utilised to analyse the expression of NANOG and PAX6. The results are illustrated in FIGS. 13 to 17.
In the graphs in FIGS. 13, 14 15, 16 and 17 the value 1 was set relative to the expression level of the gene in the control (no compound) samples. […] This experiment allowed the effect of the EHNA-related compounds to be measured directly in comparison to EHNA. […] Those which had on effect, to these levels, on either PAX6 or NANOG were considered to have a partial-EHNA effect.

SMILES | Full EHNA effect
CCCCCCCCn1cc2c(N)ncnc2n1.Cl [HWC41, 2-octyl-2H-pyrazolo[3,4-d]pyrimidin-4-amine hydrochloride] | X
CCCCCCC(CC)n1cnc2c(N)ncnc21 (racemic) [HWC57, (rac)-9-(Nonan-3-yl)-9H-purin-6-amine] | X
CCCCCCCCCCCn1ncc2c(N)ncnc21.Cl [HWC33, 1-undecyl-1H-pyrazolo[3,4-d]pyrimidin-4-amine hydrochloride] | X
CCCCCCCCn1ncc2c(N)ncnc21.Cl [HWC40, 1-octyl-1H-pyrazolo[3,4-d]pyrimidin-4-amine hydrochloride] | X
CCCCCCCCCn1cc2c(N)ncnc2n1.Cl [HWC30, 2-nonyl-2H-pyrazolo[3,4-d]pyrimidin-4-amine hydrochloride] | X
CCCCCC(CC)n1cnc2c(N)ncnc21 (racemic) [HWC62, (rac)-9-(octan-3-yl)-9H-purin-6-amine] | X
CCCCCCC(C(C)O)n1cnc2c(SC)ncnc21 (stereo not drawn) [HWC25, erythro-3-[6-(methylthio)-9H-purin-9-yl]nonan-2-ol] | X
CCCCCCCCCCn1cnc2c(N)ncnc21 [HWC64, 9-(decan-1-yl)-9H-purin-6-amine] | X
CCCCCC[C@H]([C@H](C)O)n1cnc2c(N)ncnc21 [HWC46, (2S,3R)-3-(6-amino-9H-purin-9-yl)nonan-2-ol] | X
CCCCCCCCCCn1cc2c(N)ncnc2n1.Cl [HWC6, 2-decyl-2H-pyrazolo[3,4-d]pyrimidin-4-amine hydrochloride] | X

same assay, conditions: 10 uM, 14 days, qRT-PCR; neither NANOG nor PAX6 criterion met

SMILES | NO EHNA EFFECT
CCCCCCC(C(C)O)n1nnc2cnccc21 (racemic) [HWC54, (rac)-erythro-3-(1H-[1,2,3]triazolo[4,5-c]pyridin-1-yl)nonan-2-ol] | X
CCCCCC[C@@H]([C@@H](C)O)n1cnc2c(OC)ncnc21.Cl [HWC15, erythro-3-(6-methoxy-9H-purin-9-yl)nonan-2-ol hydrochloride] | X
CCCCCC[C@@H]([C@@H](C)O)n1cnc2c(OC)ncnc21 [HWC53, (2R,3S)-3-(6-methoxy-9H-purin-9-yl)nonan-2-ol] | X
CCC[C@H]([C@H](C)O)n1cnc2c(N)ncnc21 [HWC60, (2S,3R)-3-(6-Amino-9H-purin-9-yl)hexan-2-ol] | X
CCC[C@H](O)[C@@H](C)n1cnc2c(N)ncnc21 [HWC61, (2R,3S)-2-(6-amino-9H-purin-9-yl)hexan-3-ol] | X
CCCCCC[C@H](O)[C@@H](C)n1cnc2c(OC)ncnc21 [HWC49, (2R,3S)-2-(6-methoxy-9H-purin-9-yl)nonan-3-ol] | X
COc1ncnc2c1ncn2[C@H](CCc1ccccc1)[C@H](C)O.Cl [HWC45, (2S,3R)-3-(6-methoxy-9H-purin-9-yl)-5-phenylpentan-2-ol hydrochloride] | X
CCCCCC[C@@H]([C@@H](C)O)n1cnc(C(N)=O)c1 [HWC36, erythro-1-(2-hydroxynonan-3-yl)-1H-imidazole-4-carboxamide] | X
CCCCCC[C@@H]([C@@H](C)O)n1cnc(C(=O)NC)c1 [HWC7, erythro-1-(2-hydroxynonan-3-yl)-N-methyl-1H-imidazole-4-carboxamide] | X

same assay, conditions: 10 uM, 14 days, qRT-PCR; only NANOG at least 50% of EHNA level

SMILES | PARTIAL EHNA EFFECT (NANOG)
CCCCC[C@H](O)[C@@H](C)n1cnc2c(N)ncnc21 [HWC58, (2R,3S)-2-(6-amino-9H-purin-9-yl)octan-3-ol] | X (Those which had on effect, to these levels, on either PAX6 or NANOG were considered to have a partial-EHNA effect)

same assay, conditions: 10 uM, 14 days, qRT-PCR; only PAX6 50% or less of untreated control

SMILES | PARTIAL EHNA EFFECT (PAX6)
CCCCCC[C@@H]([C@@H](C)O)n1cnc2c(N)ncnc21 [HWC52, (2R,3S)-3-(6-amino-9H-purin-9-yl)nonan-2-ol] | X (Those which had on effect, to these levels, on either PAX6 or NANOG were considered to have a partial-EHNA effect)
CCCCCCC(C(C)O)n1cnc2c(NN)ncnc21 (stereo not drawn) [HWC27, erythro-3-(6-hydrazinyl-9H-purin-9-yl)nonan-2-ol] | X (Those which had on effect, to these levels, on either PAX6 or NANOG were considered to have a partial-EHNA effect)
CCCCCCC(C(C)O)n1cnc2c(Cl)ncnc21 (stereo not drawn) [HWC10, erythro-3-(6-Chloro-9H-purin-9-yl)nonan-2-ol] | X (Those which had on effect, to these levels, on either PAX6 or NANOG were considered to have a partial-EHNA effect)
CCCCCCCC(CC)n1cnc2c(N)ncnc21 (racemic) [HWC63, (rac)-9-(decan-3-yl)-9H-purin-6-amine] | X (Those which had on effect, to these levels, on either PAX6 or NANOG were considered to have a partial-EHNA effect)
CCCCCCC(C(C)O)n1c(C)nc2c(N)ncnc21.Cl (stereo not drawn) [HWC24, erythro-3-(6-Amino-8-methyl-9H-purin-9-yl)nonan-2-ol hydrochloride] | X (Those which had on effect, to these levels, on either PAX6 or NANOG were considered to have a partial-EHNA effect)
CCCCCC[C@@H]([C@@H](C)O)n1nnc2c(N)ncnc21 [HWC26, erythro-3-(7-amino-3H-[1,2,3]triazolo[4,5-d]pyrimidin-3-yl)nonan-2-ol] | X (Those which had on effect, to these levels, on either PAX6 or NANOG were considered to have a partial-EHNA effect)
Nc1ncnc2nn(CCN3CCOCC3)cc12 [HWC29, 2-(2-morpholinoethyl)-2H-pyrazolo[3,4-d]pyrimidin-4-amine] | X (Those which had on effect, to these levels, on either PAX6 or NANOG were considered to have a partial-EHNA effect)
CCCCCC[C@@H]([C@@H](C)O)n1cnc2cncnc21 [HWC12, erythro-3-(9H-purin-9-yl)nonan-2-ol] | X (Those which had on effect, to these levels, on either PAX6 or NANOG were considered to have a partial-EHNA effect)
CCCCCCC(C(C)O)n1cnc2c(NC)ncnc21 (stereo not drawn) [HWC16, erythro-3-[6-(methylamino)-9H-purin-9-yl]nonan-2-ol] | X (Those which had on effect, to these levels, on either PAX6 or NANOG were considered to have a partial-EHNA effect)
CCCCCC[C@@H](O)[C@H](C)n1cnc2c(N)ncnc21 [HWC50, (2S,3R)-2-(6-amino-9H-purin-9-yl)nonan-3-ol] | X (Those which had on effect, to these levels, on either PAX6 or NANOG were considered to have a partial-EHNA effect)
CCCCCC[C@@H]([C@@H](C)O)n1cnc2c(N)nccc21.Cl [HWC9, erythro-3-(4-Amino-1H-imidazo[4,5-c]pyridin-1-yl)nonan-2-ol hydrochloride] | X (Those which had on effect, to these levels, on either PAX6 or NANOG were considered to have a partial-EHNA effect)

same assay, conditions: FIG. 10

SMILES | prevention of differentiation of hESCs
CCCCCCC(C(C)O)n1cnc2cccnc21.Cl (stereo not drawn) [HWC-5, 3-(3H-imidazo[4,5-b]pyridin-3-yl)nonan-2-ol hydrochloride] | can prevent differentiation of hESCs
CCCCCCCCCCn1cc2c(N)ncnc2n1.Cl [HWC6, 2-decyl-2H-pyrazolo[3,4-d]pyrimidin-4-amine hydrochloride] | can prevent differentiation of hESCs

same assay, conditions: qRT-PCR, 14 days

SMILES | PAX6 expression in differentiating conditions
CCCCCCC(C(C)O)n1cnc2cccnc21.Cl (stereo not drawn) [HWC-5, 3-(3H-imidazo[4,5-b]pyridin-3-yl)nonan-2-ol hydrochloride] | inhibiting PAX6 expression
CCCCCCCCCCn1cc2c(N)ncnc2n1.Cl [HWC6, 2-decyl-2H-pyrazolo[3,4-d]pyrimidin-4-amine hydrochloride] | inhibiting PAX6 expression
CC(C)Cn1c(=O)n(C)c(=O)c2[nH]cnc21 [IBMX, 3-Isobutyl-1-methylxanthine, reference compound] | nor did they inhibit PAX6 induction

same assay, conditions: qRT-PCR, 14 days, FIG. 9a

SMILES | stem cell marker expression (NANOG, ZFP42, POU5F1) in differentiating conditions
CC(C)Cn1c(=O)n(C)c(=O)c2[nH]cnc21 [IBMX, 3-Isobutyl-1-methylxanthine, reference compound] | Neither BAY nor IBMX maintained stem cell marker expression

same assay, conditions: qRT-PCR, 14 days, relative to untreated control

SMILES | NANOG expression in differentiating conditions
CCCCCCC(C(C)O)n1cnc2cccnc21.Cl (stereo not drawn) [HWC-5, 3-(3H-imidazo[4,5-b]pyridin-3-yl)nonan-2-ol hydrochloride] | capable of maintaining NANOG
CCCCCCCCCCn1cc2c(N)ncnc2n1.Cl [HWC6, 2-decyl-2H-pyrazolo[3,4-d]pyrimidin-4-amine hydrochloride] | capable of maintaining NANOG
